# Measurements: patent US8796302B2 (priority 2004, dated 2014)
# Key:
# superoxide = experiment: Superoxide release (SOD-inhibitable cytochrome c reduction) after LPS; assay type: cell-based, rat
# Procedure: The release of superoxide was determined by measuring the superoxide dismutase (SOD)-inhibitable reduction of cytochrome c. To measure the immediate release of superoxide from microglia-enriched or neuron-glia after stimulation, cultures grown in 96-well plates were switched to phenol red-free HBSS (50 μl/well). To each well was added 50 μl of HBSS containing vehicle or DM. The cultures were then incubated at about 37° C. for about 30 min followed by 50 μl of ferricytochrome c (100 μM) in HBSS, with and without 600 U/ml SOD, 50 μl of vehicle or LPS in HBSS. The absorbance at 550 nm was read with a SpectraMax Plus microplate spectrophotometer (Molecular Devices, Sunnyvale, Calif.).
# This example tests whether or not post-treatment with DM is still neuroprotective in LPS-induced neurotoxicity. Neuron-glia co-cultures as prepared in Example 1 were first treated with LPS (20 ng/ml) for twelve hours, and then LPS was removed by removing the media from the cultures and washing twice with PBS. Different concentrations of DM (10^−5, 10^−10, and 10^−14 M) were then added to the cultures and incubation was continued for another 6 or 7 days. The DA uptake and the superoxide production were measured as in Example 1 and 5. Results are expressed as a percentage of the control cultures and are the mean±S.E.M of three to six experiments with triplicates in each experiment. ##, P<0.01 compared with control culture; *, P<0.05 compared with the LPS-treated culture.
# Primary enriched-microglia cultures were prepared as in Example 1. […] The intracellular ROS concentrations and superoxide amounts were measured as in Example 5. The data are expressed as the percent of the control cultures and are the mean±SEM of three experiments performed in triplicate. *P<0.05, **P<0.01, compared to control.
# CD-1 mice given LPS/GalN = experiment: Serum ALT in LPS/GalN endotoxic shock; assay type: in vivo, mouse; settings: for serum ALT level: 12 hrs after LPS/GalN
# Procedure: Endotoxic shock was induced in the mice by administering a single intraperitoneal dose of lipopolysaccharide/D-(+/−)Glactosomine (Sigma, St. Louis, Mo.) (LPS/GalN) (20 μg/700 mg/kg) in saline. To test whether DM has protective effects on septic shock, varying concentrations (6.25, 12.5 and 25 mg/kg) of DM were injected into the mice subcutaneously 30 min before, and 2, and 4 hr after the injection of LPS/GalN. Control mice received the same amount of saline. At different time points, the animals were killed, and serum and liver samples were collected.
# To examine the therapeutic effects of DM, animals were treated with […] DM at 30 min before LPS/GalN injection, and 30, 60 and 120 min after LPS/GalN administration. Serum ALT was measured to evaluate the therapeutic effects of the DM. Survival rate was evaluated within 12 hours after endotoxin administration.
# Serum alanine aminotransferase (ALT) activity was assayed as a marker of hepatocellular death using a commercially available kit (Infinite ALT, Sigma, St. Louis, Mo.). A portion of the liver was fixed in 10% neutral formalin, processed by standard histological techniques, stained with hematoxylin and eosin, and examined for morphological evidence of liver injury.
# iNOS = experiment: Western blot of iNOS in microglia enriched cultures; assay type: cell-based, rat; settings: femto-molar DM, 30 min pretreatment, LPS
# Procedure: (§1) Western blots were used to analyze possible effects of DM on iNOS and COX2 production in rat microglia enriched cultures. The cultures were prepared and treated with vehicle, OM DM, 10^−14DM, LPS alone, and LPS with different concentrations of DM. The production of iNOS (inducible nitric oxide synthenase) and COX2 (cycloxyase 2) in the culture extracts were detected by Western Blot assay. Data in FIG. 9B represent the mean±S.E.
# CD-1 mouse Kupffer cells = experiment: Superoxide and intracellular ROS in LPS-stimulated Kupffer cells; assay type: cell-based; settings: LPS 10 ng/ml
# Procedure: Kupffer cell samples were collected by anesthetizing the CD-1 mice with pentobarbital anesthesia [60 mg/kg intraperitoneally (i.p.)]. The abdomen of the animals was shaved and opened, the portal vein was cannulated and perfused with Ca^2+- and Mg^2+-free Hanks' balanced salt solution (HBSS) at 37° C. for 5 min at a flow rate of 13 ml/min. Subsequently, the liver was perfused with HBSS containing 0.05% collagenase IV (Sigma Chemical, St. Louis, Mo.) at 37° C. for 5 min. After the liver was digested, it was excised and cut into small pieces in collagenase buffer. The suspension was filtered through nylon gauze mesh, and the filtrate was centrifuged at 450×g for 10 min at 4° C. Cell pellets were resuspended in buffer, parenchymal cells were removed by centrifugation at 50×g for 3 min, and the nonparenchymal cell fraction was washed twice with buffer. Cells were centrifuged on a density cushion of 50% of Percoll (Pharmacia, Upsala, Sweden) at 1,000×g for 15 min, and the Kupffer cell fraction was collected and washed again with buffer. The viability of the cells was determined by tryptan blue exclusion at >90%. The cells were seeded onto 24-well culture plates and cultured in RPMI 1640 (GIBCO Laboratories Life Technologies, Grand Island, N.Y.) supplemented with 10% fetal bovine serum and antibiotics (100 U/ml penicillin G and 100 μg/ml streptomycin sulfate) at 37° C. with 5% CO2. Non-adherent cells were removed after 2 hours by replacing media, and cells were cultured for 24 hours before the experiments.
# The production of superoxide and intracellular ROS by the Kupffer cells were measured as in Example 5.
# COX2 = experiment: Western blot of COX2 in microglia enriched cultures; assay type: cell-based, rat; settings: femto-molar DM, 30 min pretreatment, LPS
# Procedure: as §1
# GDNF = GDNF mRNA (real-time PCR) in primary astroglia; assay type: cell-based, rat; settings: VPA 0.6 mM
# Procedure: Rat primary astroglias were exposed to 0.6 in M VPA for various times ranging from 6 to 48 hours. Total RNA was extracted from cells by Tri reagent (Sigma) and purified with RNeasy columns (Qiagen, Valencia, Calif.). Expression of the selected genes was quantified using real-time RT-PCR analysis. Briefly, total RNA was reverse transcribed with MuLV reverse transcriptase and oligo-dT primers. The forward and reverse primers for selected genes were designed using Primer Express software. The SYBR green DNA PCR kit (Applied Biosystems, Foster City, Calif.) was used for real-time PCR analysis. The relative differences in expression between groups were expressed using cycle time (Ct) values and the relative differences between groups were expressed as relative increases setting the control as 100%. Assuming that the Ct value is reflective of the initial starting copy and that there is 100% efficacy, a difference of one cycle is equivalent to a two-fold difference in the starting copy.
structure (smiles),measurement,setting,value
"COc1ccc2c(c1)[C@@]13CCCC[C@H]1[C@@H](C2)N(C)CC3 [DM, d-3-methoxy-N-methylmorphinan]",LPS-induced increase in the release of superoxide,superoxide; DM 10^−5 M and 10^−14 M pretreatment,significantly decreased
same,"LPS-induced increase in superoxide production, post-treatment","superoxide; DM 10^−5 and 10^−14 M post-treatment, 24 h after LPS",significantly inhibited LPS-induced increase in superoxide production
same,LPS-induced increase in the release of superoxide,superoxide; DM 10^−10 M pretreatment,no significant reduction
same,production of superoxide,"superoxide; DM 10^−10 M, pre- or post-treatment",neither pre-treatment nor post-treatment with DM at 10^−10 M significantly affected the production of superoxide
same,serum ALT level,CD-1 mice given LPS/GalN; DM 12.5 mg/kg,about 25 % of LPS/GalN group
same,serum ALT level,CD-1 mice given LPS/GalN; DM 25 mg/kg,about 25 % of LPS/GalN group
same,time-dependent reduction of serum ALT level,"CD-1 mice given LPS/GalN; DM 30 min pre-treatment and 30, 60, 120 min post-treatments","the later the DM treatment, the less protective"
same,protein content of iNOS,iNOS,failing to affect the protein content
same,extracellular superoxide production,CD-1 mouse Kupffer cells; DM 5 μM,attenuated
same,intracellular superoxide production (iROS),CD-1 mouse Kupffer cells; DM 5 μM,attenuated
same,extracellular superoxide production,CD-1 mouse Kupffer cells; DM 10 μM,significantly blunted
same,intracellular superoxide production (iROS),CD-1 mouse Kupffer cells; DM 10 μM,significantly blunted
same,protein content of COX2,COX2,failing to affect the protein content
"CCCC(CCC)C(=O)O [VPA, Valproic acid]",GDNF mRNA levels,"GDNF; 12 hours, control as 100%",about 180%
same,GDNF mRNA levels,"GDNF; 24 hours, control as 100%",~265%
same,GDNF mRNA levels,GDNF; 48 hours,back to the control value
